≈ marks a conversion by molar mass, not a printed value.

The record followed here is ChEMBL document CHEMBL1151414, “Plant anticancer agents. XXIII. 6 alpha-senecioyloxychaparrin, a new antileukemic quassinoid from Simaba multiflora” (1983).

Type in all cases: functional
The test system of one assay is KB. Nature of the assay: Cytotoxicity against human KB cells by NCI method. Particulars: read-out: ED50 (the source's name).
The subject of assay [1] is P388. The experiment in a line: In vivo antitumor activity against mouse P388 cells at 3.0 mg/kg relative to control.
In assay [2] the test system is P388. The experiment in a line: In vivo antitumor activity against mouse P388 cells at 1.5 mg/kg relative to control.
The subject of assay [3] is P388. The experiment in a line: In vivo antitumor activity against mouse P388 cells at 0.75 mg/kg relative to control.
In assay [4] the test system is P388. Nature of the assay: In vivo antitumor activity against mouse P388 cells at 0.38 mg/kg relative to control.
Assay [5] concerns P388. The experiment in a line: In vivo antitumor activity against mouse P388 cells at 2.5 mg/kg relative to control.
Assay [6] deals with P388. The experiment in a line: In vivo antitumor activity against mouse P388 cells at 1.25 mg/kg relative to control.
Assay [7] has as its system P388. Nature of the assay: In vivo antitumor activity against mouse P388 cells at 0.63 mg/kg relative to control.
Assay [8] deals with P388. Nature of the assay: In vivo antitumor activity against mouse P388 cells at 0.31 mg/kg relative to control.

Take `CC(C)=CC(=O)O[C@@H]1[C@H]2C(C)=C[C@H](O)[C@H](O)[C@]2(C)[C@H]2[C@]3(O)OC[C@@]24[C@@H]1OC(=O)C[C@H]4[C@@H](C)[C@H]3O`: the EC50 in the assay on KB came to 3 ng/mL (≈ 6.27 nM). Also, the T/C in the assay with P388 [1] was found to be 133%; with P388 [2], 133%; in the assay on P388 [3], 160%; in the assay with P388 [4], 142%.
In the case of `CC(C)=CC(=O)O[C@@H]1[C@H]2C(C)=CC(=O)[C@H](O)[C@]2(C)[C@H]2[C@]3(O)OC[C@@]24[C@@H]1OC(=O)C[C@H]4[C@@H](C)[C@H]3O`, the EC50 in the assay on KB turned out to be 3 ng/mL (≈ 6.3 nM). Besides, the T/C in the assay with P388 [5] was determined as 136%; with P388 [6] it was 133%; in the assay on P388 [7], 176%; with P388 [8], 145%.
`CC1=CC(=O)[C@@H](O)[C@]2(C)[C@H]3[C@@]4(O)OC[C@@]35[C@@H](C[C@@H]12)OC(=O)C[C@H]5[C@@H](C)[C@H]4O` [CHAPARRINONE]: the EC50 in the assay with KB came out at 25 ng/mL (≈ 66.1 nM).

Broadly, the T/C is the result in the treated group divided by that in the control group, in per cent.
